Measurements taken from ChEMBL document CHEMBL4507266, “Data for DCP probe BAY-784” (2021).

Experiments:
[1] = biological target: GABA-A receptor; anion channel (Rattus norvegicus) (UniProt O09028+P15431+P18506+P18508+P19969+P20236+P23574+P23576+P28471+P28473+P30191+P62813+P63079+P63138+Q91ZM7+Q9ES14); test: Inhibition of GABAA, Muscimol, Central at 10 µM in the Eurofins-Panlabs radioligand binding assay (Eurofins_assay_226500); type: protein-complex assay; conditions: Compound concentration 10.0 uM
[2] = biological target: Glutamate receptor ionotropic, kainate (Rattus norvegicus) (UniProt P22756+Q01812+P42260+P42264+Q63273); test: Inhibition of Glutamate, Kainate at 10 µM in the Eurofins-Panlabs radioligand binding assay (Eurofins_assay_232700); conditions: Compound concentration 10.0 uM
[3] = biological target: Neuropeptide Y receptor type 1 (Homo sapiens) (UniProt P25929); test: Inhibition of Neuropeptide Y Y1 at 10 µM in the Eurofins-Panlabs radioligand binding assay (Eurofins_assay_257010); conditions: Compound concentration 10.0 uM
[4] = biological target: Neuropeptide Y receptor type 2 (Homo sapiens) (UniProt P49146); test: Inhibition of Neuropeptide Y Y2 at 10 µM in the Eurofins-Panlabs radioligand binding assay (Eurofins_assay_257110); conditions: Compound concentration 10.0 uM
Mus musculus = organism: Mus musculus; test: Inhibition of Phorbol Ester at 10 µM in the Eurofins-Panlabs radioligand binding assay (Eurofins_assay_264500); design: ligand concentration 3 nM; conditions: Compound concentration 10.0 uM
[5] = biological target: Substance-P receptor (Homo sapiens) (UniProt P25103); test: Inhibition of Tachykinin NK1 at 10 µM in the Eurofins-Panlabs radioligand binding assay (Eurofins_assay_255520); design: ligand concentration 0.8 nM; conditions: Compound concentration 10.0 uM
Bacteria = test: Beta-Lactamase Eurofins-Panlabs enzyme assay; design: substrate with concentration; conditions: Compound concentration 10.0 uM
CYP2C19 = CYP2C19 (Homo sapiens, UniProt P33261); test: CYP450, 2C19 Eurofins-Panlabs enzyme assay; conditions: compound concentration 10 uM
CYP2D6 = CYP2D6 (Homo sapiens, UniProt P10635); test: CYP450, 2D6 Eurofins-Panlabs enzyme assay; conditions: compound concentration 10 uM
Caspase-1 (Homo sapiens) = Caspase-1 (Homo sapiens) (UniProt P29466); test: Inhibition of Peptidase, CASP1 (Caspase 1) at 10 µM in the Eurofins-Panlabs enzyme assay (Eurofins_assay_163000); conditions: Compound concentration 10.0 uM
[6] = biological target: Neutrophil elastase (Homo sapiens) (UniProt P08246); test: Inhibition of Peptidase, ELA2 (Neutrophil Elastase 2) at 10 µM in the Eurofins-Panlabs enzyme assay (Eurofins_assay_166010); conditions: Compound concentration 10.0 uM
Homo sapiens = organism: Homo sapiens; test: Inhibition of Phosphodiesterase PDE4 at compound concentration of 10.0 uM in the Eurofins-Panlabs enzyme assay (Eurofins_assay_154000); type: protein assay; design: substrate with concentration 1.01 uM [3 H]cAMP + cAMP, incubation time 20 min, incubation temperature 25 C; conditions: Compound concentration 10.0 uM
[7] = biological target: Epidermal growth factor receptor (Homo sapiens) (UniProt P00533); test: Protein Tyrosine Kinase, EGF Receptor Eurofins-Panlabs enzyme assay; design: substrate with concentration; conditions: Compound concentration 10.0 uM
[8] = biological target: Receptor tyrosine-protein kinase erbB-2 (Homo sapiens) (UniProt P04626); test: Inhibition of Protein Tyrosine Kinase, ERBB2 (HER2) at 10 µM in the Eurofins-Panlabs enzyme assay (Eurofins_assay_174020); design: substrate with concentration; conditions: Compound concentration 10.0 uM
[9] = biological target: Tyrosine-protein kinase Fyn (Homo sapiens) (UniProt P06241); test: Inhibition of Protein Tyrosine Kinase, Fyn at 10 µM in the Eurofins-Panlabs enzyme assay (Eurofins_assay_172020); design: substrate with concentration; conditions: Compound concentration 10.0 uM
[10] = biological target: C-X-C chemokine receptor type 2 (Homo sapiens) (UniProt P25025); test: Inhibition of Chemokine CXCR2 (IL-8RB) at 10 µM in the Eurofins-Panlabs radioligand binding assay (Eurofins_assay_244500); conditions: Compound concentration 10.0 uM
[11] = Inhibition of Platelet-Derived Growth Factor (PDGF) at 10 µM in the Eurofins-Panlabs radioligand binding assay (Eurofins_assay_265200); conditions: Compound concentration 10 uM; Detection method Radioligand Binding; Incubation temperature 25 °C; Incubation time 45 min; Ligand [3H]PDGF; Ligand concentration 0.02 nM; Non-specific ligand with concentration 10 nM PDGF; Source of protein Swiss mouse 3T3 embryo cells
[12] = biological target: 5-hydroxytryptamine receptor 5A (Homo sapiens) (UniProt P47898); conditions: Compound concentration 10.0 uM
[13] = biological target: Adenosine receptor A2a (Homo sapiens) (UniProt P29274); conditions: Compound concentration 10.0 uM
[14] = biological target: Beta-1 adrenergic receptor (Homo sapiens) (UniProt P08588); conditions: Compound concentration 10.0 uM
[15] = biological target: Beta-2 adrenergic receptor (Homo sapiens) (UniProt P07550); conditions: Compound concentration 10.0 uM
Cannabinoid receptor 1 = Cannabinoid receptor 1 (Homo sapiens, UniProt P21554)
D(1A) dopamine receptor = D(1A) dopamine receptor (Homo sapiens, UniProt P21728); conditions: Compound concentration 10.0 uM
[16] = biological target: D(3) dopamine receptor (Homo sapiens) (UniProt P35462); conditions: Compound concentration 10.0 uM
[17] = biological target: T1, Muscarinic acetylcholine receptor M1 (Homo sapiens) (UniProt P11229); conditions: Compound concentration 10.0 uM
T1 sequence (whole entry): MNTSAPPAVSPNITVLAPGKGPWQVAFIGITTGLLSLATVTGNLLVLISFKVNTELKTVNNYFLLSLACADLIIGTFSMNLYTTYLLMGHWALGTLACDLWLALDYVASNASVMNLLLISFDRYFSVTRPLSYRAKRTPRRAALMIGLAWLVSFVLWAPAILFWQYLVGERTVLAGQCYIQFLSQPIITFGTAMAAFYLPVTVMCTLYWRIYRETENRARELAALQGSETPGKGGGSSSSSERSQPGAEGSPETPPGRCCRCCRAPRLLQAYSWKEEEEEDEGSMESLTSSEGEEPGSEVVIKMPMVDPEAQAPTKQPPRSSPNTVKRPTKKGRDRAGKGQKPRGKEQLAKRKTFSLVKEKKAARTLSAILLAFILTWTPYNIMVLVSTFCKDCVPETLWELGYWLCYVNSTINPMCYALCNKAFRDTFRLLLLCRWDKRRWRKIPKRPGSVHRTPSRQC

[18] = biological target: Muscarinic acetylcholine receptor M3 (Homo sapiens) (UniProt P20309); conditions: Compound concentration 10.0 uM
[19] = biological target: Mu-type opioid receptor (Homo sapiens) (UniProt P35372); conditions: Compound concentration 10.0 uM
[20] = biological target: cGMP-specific 3',5'-cyclic phosphodiesterase (Homo sapiens) (UniProt O76074); conditions: Compound concentration 10.0 uM
[21] = biological target: Type-2 angiotensin II receptor (Homo sapiens) (UniProt P50052); conditions: Compound concentration 10.0 uM
[22] = biological target: Muscarinic acetylcholine receptor M4 (Homo sapiens) (UniProt P08173); conditions: Compound concentration 10.0 uM
[23] = tested on: Progesterone receptor (Bos taurus); test: Progesterone Eurofins-Panlabs radioligand binding assay; conditions: Compound concentration 10.0 uM
[24] = biological target: Gonadotropin-releasing hormone receptor (Homo sapiens, UniProt P30968); test: Mechanistic assay measuring cellular IP1; type: functional

Sequence of Cannabinoid receptor 1 (P21554 whole entry): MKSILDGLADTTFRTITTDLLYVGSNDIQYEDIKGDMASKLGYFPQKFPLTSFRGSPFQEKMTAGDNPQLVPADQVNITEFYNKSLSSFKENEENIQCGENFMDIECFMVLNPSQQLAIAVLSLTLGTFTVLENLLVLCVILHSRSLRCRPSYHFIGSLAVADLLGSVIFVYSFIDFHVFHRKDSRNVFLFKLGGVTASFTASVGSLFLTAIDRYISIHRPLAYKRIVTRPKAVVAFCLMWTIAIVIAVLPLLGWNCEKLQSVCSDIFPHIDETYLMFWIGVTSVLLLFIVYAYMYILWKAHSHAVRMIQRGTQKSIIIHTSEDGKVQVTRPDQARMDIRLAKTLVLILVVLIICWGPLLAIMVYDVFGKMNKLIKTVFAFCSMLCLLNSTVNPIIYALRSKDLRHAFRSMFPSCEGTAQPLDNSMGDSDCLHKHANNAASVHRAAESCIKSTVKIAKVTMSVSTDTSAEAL
Sequence of Caspase-1 (Homo sapiens) (P29466 120-297 limits assumed): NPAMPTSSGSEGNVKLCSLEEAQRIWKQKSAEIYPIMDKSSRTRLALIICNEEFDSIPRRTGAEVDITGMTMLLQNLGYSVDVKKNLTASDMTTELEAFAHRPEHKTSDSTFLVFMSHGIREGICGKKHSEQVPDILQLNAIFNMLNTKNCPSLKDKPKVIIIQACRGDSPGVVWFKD
Sequence of Caspase-1 (Homo sapiens) (P29466 317-404 limits assumed): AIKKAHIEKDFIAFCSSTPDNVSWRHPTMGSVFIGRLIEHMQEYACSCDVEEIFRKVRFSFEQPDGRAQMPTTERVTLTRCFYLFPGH
Sequence of Neutrophil elastase (Homo sapiens) (P08246 whole entry): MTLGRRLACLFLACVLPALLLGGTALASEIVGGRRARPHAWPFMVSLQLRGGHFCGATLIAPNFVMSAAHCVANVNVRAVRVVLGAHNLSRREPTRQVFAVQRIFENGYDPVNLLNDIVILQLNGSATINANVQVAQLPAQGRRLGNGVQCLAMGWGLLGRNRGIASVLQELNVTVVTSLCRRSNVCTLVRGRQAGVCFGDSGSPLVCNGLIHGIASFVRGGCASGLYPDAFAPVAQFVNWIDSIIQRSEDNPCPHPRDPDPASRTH
Sequence of Receptor tyrosine-protein kinase erbB-2 (Homo sapiens) (P04626 whole entry): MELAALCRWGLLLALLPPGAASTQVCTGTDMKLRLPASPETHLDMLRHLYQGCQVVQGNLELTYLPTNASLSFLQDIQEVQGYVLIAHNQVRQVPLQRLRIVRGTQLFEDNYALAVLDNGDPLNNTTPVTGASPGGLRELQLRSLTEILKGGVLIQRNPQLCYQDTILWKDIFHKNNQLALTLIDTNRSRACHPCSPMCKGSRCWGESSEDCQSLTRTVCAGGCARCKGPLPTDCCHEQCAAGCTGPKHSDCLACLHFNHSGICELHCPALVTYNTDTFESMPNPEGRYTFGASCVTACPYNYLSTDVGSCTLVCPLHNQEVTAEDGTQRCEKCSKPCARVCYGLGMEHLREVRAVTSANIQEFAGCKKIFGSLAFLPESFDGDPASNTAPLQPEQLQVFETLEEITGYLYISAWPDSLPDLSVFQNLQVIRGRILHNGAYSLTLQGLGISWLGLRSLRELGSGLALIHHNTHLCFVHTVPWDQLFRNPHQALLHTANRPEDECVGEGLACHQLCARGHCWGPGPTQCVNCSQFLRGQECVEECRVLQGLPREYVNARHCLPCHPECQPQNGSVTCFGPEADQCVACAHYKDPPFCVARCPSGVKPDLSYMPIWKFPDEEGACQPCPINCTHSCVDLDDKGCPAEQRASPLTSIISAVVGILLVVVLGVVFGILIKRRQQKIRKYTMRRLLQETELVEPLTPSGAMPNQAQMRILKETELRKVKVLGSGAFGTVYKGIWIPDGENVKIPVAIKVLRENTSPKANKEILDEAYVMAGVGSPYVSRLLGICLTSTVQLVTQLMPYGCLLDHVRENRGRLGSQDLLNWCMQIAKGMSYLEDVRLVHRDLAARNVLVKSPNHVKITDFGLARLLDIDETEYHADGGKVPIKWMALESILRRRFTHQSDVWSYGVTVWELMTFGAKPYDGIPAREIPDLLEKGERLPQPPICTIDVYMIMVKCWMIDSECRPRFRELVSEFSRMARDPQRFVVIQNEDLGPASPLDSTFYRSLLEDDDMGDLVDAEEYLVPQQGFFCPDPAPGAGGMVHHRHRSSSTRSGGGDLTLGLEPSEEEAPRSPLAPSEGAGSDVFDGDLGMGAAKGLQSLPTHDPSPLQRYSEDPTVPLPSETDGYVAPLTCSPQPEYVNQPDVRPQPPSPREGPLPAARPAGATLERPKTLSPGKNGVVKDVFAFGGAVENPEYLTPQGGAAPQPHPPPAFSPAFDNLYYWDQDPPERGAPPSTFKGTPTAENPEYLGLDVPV
Sequence of D(1A) dopamine receptor (P21728 whole entry): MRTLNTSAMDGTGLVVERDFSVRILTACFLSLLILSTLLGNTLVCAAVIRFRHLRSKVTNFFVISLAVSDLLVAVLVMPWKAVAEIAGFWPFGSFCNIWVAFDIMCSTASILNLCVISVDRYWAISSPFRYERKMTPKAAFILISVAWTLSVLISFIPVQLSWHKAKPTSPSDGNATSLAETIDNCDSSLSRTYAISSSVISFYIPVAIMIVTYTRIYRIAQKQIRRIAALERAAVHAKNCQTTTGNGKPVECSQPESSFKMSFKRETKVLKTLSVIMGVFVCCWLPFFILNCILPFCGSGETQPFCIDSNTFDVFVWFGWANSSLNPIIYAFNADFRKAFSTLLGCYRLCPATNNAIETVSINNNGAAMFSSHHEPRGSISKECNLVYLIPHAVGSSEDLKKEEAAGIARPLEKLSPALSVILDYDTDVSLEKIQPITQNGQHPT
Sequence of Muscarinic acetylcholine receptor M4 (Homo sapiens) (P08173 whole entry): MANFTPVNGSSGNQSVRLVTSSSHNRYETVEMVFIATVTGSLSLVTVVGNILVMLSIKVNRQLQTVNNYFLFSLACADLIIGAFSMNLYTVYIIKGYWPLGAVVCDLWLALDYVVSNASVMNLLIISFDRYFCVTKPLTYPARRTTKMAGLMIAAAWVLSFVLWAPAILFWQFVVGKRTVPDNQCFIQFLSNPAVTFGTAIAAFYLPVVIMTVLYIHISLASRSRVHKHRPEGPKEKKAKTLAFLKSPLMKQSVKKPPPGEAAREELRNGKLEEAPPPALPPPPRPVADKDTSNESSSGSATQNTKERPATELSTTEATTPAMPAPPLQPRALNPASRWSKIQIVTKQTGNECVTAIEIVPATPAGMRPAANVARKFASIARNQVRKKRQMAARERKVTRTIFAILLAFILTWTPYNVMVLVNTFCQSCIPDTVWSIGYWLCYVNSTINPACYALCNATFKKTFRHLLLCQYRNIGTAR
Sequence of Beta-1 adrenergic receptor (Homo sapiens) (P08588 whole entry, looked up): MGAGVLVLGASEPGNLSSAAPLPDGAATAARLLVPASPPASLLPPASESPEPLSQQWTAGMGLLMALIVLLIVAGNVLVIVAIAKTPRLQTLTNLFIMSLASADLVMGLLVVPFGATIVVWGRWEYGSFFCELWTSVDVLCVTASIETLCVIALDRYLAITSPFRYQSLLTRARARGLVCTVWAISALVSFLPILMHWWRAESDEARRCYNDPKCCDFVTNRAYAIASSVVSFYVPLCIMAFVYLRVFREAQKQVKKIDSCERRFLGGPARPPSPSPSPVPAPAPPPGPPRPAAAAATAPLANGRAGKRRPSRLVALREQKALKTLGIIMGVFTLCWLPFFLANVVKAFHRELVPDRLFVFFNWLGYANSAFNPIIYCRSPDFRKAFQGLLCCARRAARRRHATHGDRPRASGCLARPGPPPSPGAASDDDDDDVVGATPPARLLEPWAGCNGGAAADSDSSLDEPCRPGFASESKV
Sequence of Tyrosine-protein kinase Fyn (Homo sapiens) (P06241 2-537 limits assumed): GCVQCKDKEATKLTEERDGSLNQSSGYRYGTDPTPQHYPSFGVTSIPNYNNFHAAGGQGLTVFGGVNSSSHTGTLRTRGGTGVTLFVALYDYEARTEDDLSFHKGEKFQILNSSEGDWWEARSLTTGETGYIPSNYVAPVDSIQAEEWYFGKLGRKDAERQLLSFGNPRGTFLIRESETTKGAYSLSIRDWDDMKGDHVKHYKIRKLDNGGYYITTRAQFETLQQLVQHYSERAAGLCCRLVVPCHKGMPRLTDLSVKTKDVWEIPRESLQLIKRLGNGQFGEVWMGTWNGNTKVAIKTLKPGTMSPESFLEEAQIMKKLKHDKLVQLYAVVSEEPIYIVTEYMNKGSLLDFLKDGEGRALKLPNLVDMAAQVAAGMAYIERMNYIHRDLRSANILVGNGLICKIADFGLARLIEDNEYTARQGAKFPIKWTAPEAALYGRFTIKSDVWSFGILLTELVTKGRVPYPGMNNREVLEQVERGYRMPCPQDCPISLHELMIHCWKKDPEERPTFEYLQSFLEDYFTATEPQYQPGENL
Sequence of D(3) dopamine receptor (Homo sapiens) (P35462 whole entry): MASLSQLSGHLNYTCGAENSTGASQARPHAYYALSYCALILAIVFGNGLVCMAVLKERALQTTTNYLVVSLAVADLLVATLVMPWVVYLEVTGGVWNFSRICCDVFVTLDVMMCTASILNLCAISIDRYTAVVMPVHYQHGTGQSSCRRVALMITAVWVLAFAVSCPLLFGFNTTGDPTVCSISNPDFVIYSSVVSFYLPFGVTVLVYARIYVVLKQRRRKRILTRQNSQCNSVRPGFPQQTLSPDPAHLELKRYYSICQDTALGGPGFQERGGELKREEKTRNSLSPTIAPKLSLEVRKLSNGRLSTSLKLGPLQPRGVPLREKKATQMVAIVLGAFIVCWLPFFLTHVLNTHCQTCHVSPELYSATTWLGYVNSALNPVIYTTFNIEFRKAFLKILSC
Sequence of C-X-C chemokine receptor type 2 (Homo sapiens) (P25025 whole entry): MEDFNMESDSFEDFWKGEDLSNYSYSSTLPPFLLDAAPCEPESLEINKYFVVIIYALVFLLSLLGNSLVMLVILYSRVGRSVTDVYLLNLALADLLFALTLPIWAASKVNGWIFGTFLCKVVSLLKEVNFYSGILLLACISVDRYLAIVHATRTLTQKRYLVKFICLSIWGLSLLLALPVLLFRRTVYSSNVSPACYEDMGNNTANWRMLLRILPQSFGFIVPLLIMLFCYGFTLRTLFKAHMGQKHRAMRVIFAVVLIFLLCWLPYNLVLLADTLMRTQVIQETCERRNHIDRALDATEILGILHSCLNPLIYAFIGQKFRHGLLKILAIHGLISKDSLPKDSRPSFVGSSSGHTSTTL

Q: Which inhibition [1] does the source give for `O=C(NCc1ncc(C(F)(F)F)cc1Cl)c1ccc2c(c1)C1(CCS(=O)(=O)CC1)[C@H](C1CC1)N2S(=O)(=O)c1ccc(F)cc1` [BAY-784] here?
A: 7%

Q: What about the inhibition [2] of the same compound?
A: 1%

Q: And the inhibition [3]?
A: 17%

Q: What about the inhibition [4] of the same compound?
A: 2%

Q: And the inhibition (Mus musculus)?
A: 1%

Q: And the inhibition [5]?
A: 26%

Q: And the inhibition (Bacteria)?
A: -2%

Q: And the inhibition at 10 µM (CYP2C19)?
A: 36% (not active)

Q: And the inhibition at 10 µM (CYP2D6)?
A: 4% (not active)

Q: And the inhibition (Caspase-1 (Homo sapiens))?
A: 8%

Q: What about the inhibition [6] of the same compound?
A: 0%

Q: And the inhibition (Homo sapiens)?
A: 2%

Q: And the inhibition [7]?
A: -3%

Q: What about the inhibition [8] of the same compound?
A: 6%

Q: What about the inhibition [9] of the same compound?
A: 5%

Q: And the inhibition [10]?
A: 14%

Q: And the inhibition at 10 µM [11]?
A: -4% (not active)

Q: And the inhibition [12]?
A: -8.25%

Q: What about the inhibition [13] of the same compound?
A: 0%

Q: And the inhibition [14]?
A: 7%

Q: What about the inhibition [15] of the same compound?
A: -4%

Q: What about the inhibition (Cannabinoid receptor 1; Compound concentration 3.0 uM) of the same compound?
A: 52%

Q: And the inhibition (Cannabinoid receptor 1; Compound concentration 10.0 uM)?
A: 73%

Q: What about the inhibition (D(1A) dopamine receptor) of the same compound?
A: 6%

Q: And the inhibition [16]?
A: 17%

Q: What about the inhibition [17] of the same compound?
A: 5%

Q: And the inhibition [18]?
A: 1%

Q: And the inhibition [19]?
A: 16%

Q: What about the inhibition [20] of the same compound?
A: -5%

Q: And the inhibition [21]?
A: -5%

Q: What about the inhibition [22] of the same compound?
A: 2%

Q: What about the inhibition [23] of the same compound?
A: 0%

Q: For `O=C(NCc1ncc(C(F)(F)F)cc1Cl)c1ccc2c(c1)C1(CCS(=O)(=O)CC1)[C@@H](C1CC1)N2S(=O)(=O)c1ccc(F)cc1` [BAY-786], which IC50 [24] is on record?
A: 2400 nM (not active)
